Experimental data as given in article PMC7046553, “Backbone Cyclization and Dimerization of LL-37-Derived Peptides Enhance Antimicrobial Activity and Proteolytic Stability” (Frontiers in Microbiology, 2020).
≈ marks a conversion by molar mass, not a printed value. Read-outs that look alike come from different tables or passages of the source. Where a SMILES comes first, the peptide text is derived from it. Where no end group is shown, it is not given here.

Experiments:
[1] = system: human lymphoma cell line U-937 GTB; settings: read-out: IC50 (cytotoxicity); 72 hours incubation; tested in parallel with the dimers; ref Gunasekera et al., 2018; cited from earlier work
[2] = type: cell-based, human
Text: FIGURE 4 Cytotoxicity. Cytotoxicity on a human lymphoma cell line (U-937 GTB). The cell viability derives from the hydrolysis of the probe fluorescein diacetate by esterases in cells with intact plasma membranes. Results are means from triplicates with standard deviation, and the IC50 level is highlighted by a double line. The dose–response curve for LL-37 has been constrained within 100% to compensate for elevated fluorescein hydrolysis by intermediate LL-37 concentrations. The data for KR-12, Q5K,D9K and LL-37 are from our previous work ([Gunasekera et al., 2018]), but tested in parallel with the dimers and included here for consistency.
The cytotoxicity of the peptides was tested on the human lymphoma cell line U-937 GTB in a fluorometric microculture cytotoxicity assay (FMCA), described in detail previously ([Sundström and Nilsson, 1976]; [Lindhagen et al., 2008]). […] After incubation for 40 minutes the fluorescence was measured at 485 nm excitation and 538 nm emission using a Fluoroscan II (Labsystems Diagnostics Oy, Helsinki, FinlandI). The IC50-values were calculated using sigmoidal dose response curves with nonlinear non-linear regression and 0/100 constraints in GraphPad Prism (GraphPad Software, San Diego, CA, United States). […]

[3] = system: Pseudomonas aeruginosa ATCC 27853; settings: ATCC 27853, 5 h
Description: (§1) The three bacterial strains: Escherichia coli ATCC 25922, Pseudomonas aeruginosa ATCC 27853 Staphylococcus aureus ATCC 29213 as well as the fungal strain Candida albicans ATCC 90028 derived from clinical wound infections were obtained from the Department of Clinical Bacteriology at Lund University Hospital.
(§2) Antimicrobial activities of the peptides were evaluated using the two-step microdilution assay ([Strömstedt et al., 2017]), which is designed for testing AMPs without activity-inhibiting components. Briefly, the microbial suspension was washed twice with 10 mM Tris buffer (set to pH 7.4 at 37°C). 96-well plates (U-shaped, untreated polystyrene) were prepared with peptide 2-fold serial dilutions in Tris buffer. The culture density was quantified by OD600, diluted in Tris buffer and 50,000 cells aliquoted to each well in the 96-well plate to a final 100 μl volume. After 5 h of aerobic incubation at 37°C, 5 μl of 20% TSB medium was added to each well (resulting in 1% TSB) and the plates were re-incubated. Growth-inhibition was monitored when controls produced pellet sizes of 2 mm in diameter (close to growth saturation), which equates to 5, 8, 10, and 12 h for E. coli, S. aureus, P. aeruginosa, and C. albicans, respectively. […] The MIC-values in Table 1, are medians from triplicate experiments, while the data presented in the Figure 2 are the same values relative to that of KR-12.

[4] = system: Candida albicans ATCC 90028; settings: ATCC 90028, 5 h
Description: as §1, §2

[5] = system: Escherichia coli ATCC 25922; settings: ATCC 25922, 5 h
Description: as §1, §2

[6] = system: Staphylococcus aureus ATCC 29213; settings: ATCC 29213, 5 h
Description: as §1, §2

in vitro = settings: 25% human serum
Description: Proteolytic stability of the peptides were determined in diluted human serum (1:4 v/v, serum:PBS) at 37°C followed by LC-MS analysis. To examine the intact peptide after serum incubation, aliquots of each incubation mixture were taken at each time point for LC-MS analysis (Figure 5).
Peptide stability was assayed in diluted human serum. 25% human serum was centrifuged at 13,000 rpm for 10 min to remove lipids and the supernatant was collected and incubated at 37°C for 15 min. […] Eighty μl of 6 M urea was added and incubated at 4°C for a further 10 min. 80 μl of 20% TCA was added and incubated at 4°C for a further 10 min. The samples were centrifuged at 13000 g for 10 min and the supernatant was analyzed by LC-MS.

Human type A RBCs = experiment: Hemolysis assay; type: cell-based
Description: Peptides were dissolved in water and serially diluted in PBS to give 20 μl test solutions in a 96-well U-bottomed microtiter plate (Nunc). Human type A RBCs (red blood cells) were washed with PBS and centrifuged at 1500 g for 60 s in a microcentrifuge several times until a clear supernatant was obtained. A 0.25% suspension of washed RBCs in PBS (100 μl) was added to the peptide solutions. The plate was incubated at 37°C for 1 h and centrifuged at 150 g for 5 min. Aliquots of 100 μl were transferred to a 96-well flat-bottomed microtiter plate (Falcon) and the absorbance was measured at 405 nm with an automatic Multiskan Ascent plate reader (Labsystems). The amount of hemolysis was calculated as the percentage of maximum lysis (1% Triton X-100 control) after adjusting for minimum lysis (PBS control). Synthetic melittin (Sigma) was used for comparison. The hemolytic dose necessary to lyse 50% of the RBCs (HD50) was calculated using the regression constant from the linear portion of the hemolytic titration curve (GraphPad Prism software).

Row | Compound | IC50 [1] [µM] | IC50 [2] [µM] | MIC P. aeruginosa [3] [µM] | MIC C. albicans [4] [µM] | MIC fung. [4] [µM] | MIC E. coli [5] [µM] | MIC bact. [5] [µM] | MIC S. aureus [6] [µM] | remaining at 6 h (in vitro; human) [%] | HC50 (hemolysis) (Human type A RBCs) [µM] | HC50 (hemolysis) (Human type A RBCs; red cells of human, 1 h) [µM] | detection in serum after 20 min (in vitro; 37°C) | remaining at 10 min (in vitro; human) [%]
1 | CC[C@H](C)[C@H](NC(=O)[C@H](CCCCN)NC(=O)[C@H](CCC(=O)O)NC(=O)[C@H](CCCCN)NC(=O)[C@H](CO)NC(=O)[C@H](CCCCN)NC(=O)[C@H](CCCNC(=N)N)NC(=O)[C@H](Cc1ccccc1)NC(=O)[C@H](Cc1ccccc1)NC(=O)[C@H](CC(=O)O)NC(=O)CNC(=O)[C@H](CC(C)C)NC(=O)[C@@H](N)CC(C)C)C(=O)NCC(=O)N[C@@H](CCCCN)C(=O)N[C@@H](CCC(=O)O)C(=O)N[C@@H](Cc1ccccc1)C(=O)N[C@@H](CCCCN)C(=O)N[C@@H](CCCNC(=N)N)C(=O)N[C@H](C(=O)N[C@H](C(=O)N[C@@H](CCC(N)=O)C(=O)N[C@@H](CCCNC(=N)N)C(=O)N[C@H](C(=O)N[C@@H](CCCCN)C(=O)N[C@@H](CC(=O)O)C(=O)N[C@@H](Cc1ccccc1)C(=O)N[C@@H](CC(C)C)C(=O)N[C@@H](CCCNC(=N)N)C(=O)N[C@@H](CC(N)=O)C(=O)N[C@@H](CC(C)C)C(=O)N[C@H](C(=O)N1CCC[C@H]1C(=O)N[C@@H](CCCNC(=N)N)C(=O)N[C@H](C(=O)N[C@@H](CCC(=O)O)C(=O)N[C@@H](CO)C(=O)O)[C@@H](C)O)C(C)C)[C@@H](C)CC)C(C)C)[C@@H](C)CC [LL-37] | 10 | – | – | – | – | – | – | – | – | – | – | – | –
2 | CC[C@H](C)[C@@H]1NC(=O)[C@H](CCCNC(=N)N)NC(=O)[C@H](CCC(N)=O)NC(=O)[C@H](C(C)C)NC(=O)[C@H]([C@@H](C)CC)NC(=O)[C@H](CCCNC(=N)N)NC(=O)[C@H](CCCCN)NC(=O)CNC(=O)CNC(=O)[C@H](C)NC(=O)CNC(=O)[C@H](CCCNC(=N)N)NC(=O)[C@H](CC(C)C)NC(=O)[C@H](Cc2ccccc2)NC(=O)[C@H](CC(=O)O)NC(=O)[C@H](CCCCN)NC(=O)[C@H]([C@@H](C)CC)NC(=O)[C@H](CCCNC(=N)N)NC(=O)[C@H](CCC(N)=O)NC(=O)[C@H](C(C)C)NC(=O)[C@H]([C@@H](C)CC)NC(=O)[C@H](CCCNC(=N)N)NC(=O)[C@H](CCCCN)NC(=O)CNC(=O)CNC(=O)[C@H](C)NC(=O)CNC(=O)[C@H](CCCNC(=N)N)NC(=O)[C@H](CC(C)C)NC(=O)[C@H](Cc2ccccc2)NC(=O)[C@H](CC(=O)O)NC(=O)[C@H](CCCCN)NC1=O [cd4] (cyclo(AGGKRIVQRIKDFLRGAGGKRIVQRIKDFLRG)) | – | 5.1 | 0.625 (≈ 2.25 µg/mL) | 2.5 (≈ 8.98 µg/mL) | 2.5 (≈ 8.98 µg/mL) | 0.625 (≈ 2.25 µg/mL) | 0.63 (≈ 2.26 µg/mL) | 1.25 (≈ 4.49 µg/mL) | ~50 | > 40 | – | – | –
3 | CC[C@H](C)[C@@H]1NC(=O)[C@H](CCCNC(=N)N)NC(=O)[C@H](CCCCN)NC(=O)[C@H](C(C)C)NC(=O)[C@H]([C@@H](C)CC)NC(=O)[C@H](CCCNC(=N)N)NC(=O)[C@H](CCCCN)NC(=O)CNC(=O)CNC(=O)[C@H](C)NC(=O)CNC(=O)[C@H](CCCNC(=N)N)NC(=O)[C@H](CC(C)C)NC(=O)[C@H](Cc2ccccc2)NC(=O)[C@H](CCCCN)NC(=O)[C@H](CCCCN)NC(=O)[C@H]([C@@H](C)CC)NC(=O)[C@H](CCCNC(=N)N)NC(=O)[C@H](CCCCN)NC(=O)[C@H](C(C)C)NC(=O)[C@H]([C@@H](C)CC)NC(=O)[C@H](CCCNC(=N)N)NC(=O)[C@H](CCCCN)NC(=O)CNC(=O)CNC(=O)[C@H](C)NC(=O)CNC(=O)[C@H](CCCNC(=N)N)NC(=O)[C@H](CC(C)C)NC(=O)[C@H](Cc2ccccc2)NC(=O)[C@H](CCCCN)NC(=O)[C@H](CCCCN)NC1=O [cd4(Q5K,D9K)] (cyclo(AGGKRIVKRIKKFLRGAGGKRIVKRIKKFLRG)) | – | 1 | 0.625 (≈ 2.26 µg/mL) | 1.25 (≈ 4.52 µg/mL) | 1.25 (≈ 4.52 µg/mL) | 0.625 (≈ 2.26 µg/mL) | 0.63 (≈ 2.28 µg/mL) | 0.625 (≈ 2.26 µg/mL) | ~50 | – | 10 | – | –
4 | RLFDKIRQVIRK [retro-KR-12] | – | – | 10 | 5 | – | 5 | – | 10 | – | – | – | could not be detected | ~20
